Laboratory results taken from patent US5837686A, “Peptides and antibodies for treatment of rheumatoid arthritis” (Peptide Therapeutics Limited, priority 1991, dated 1998).
Ends that are not written are not given here.

Assays:
IgA-α1 AT complex = assay: HPLC analysis of dissociation of purified IgA-α1 AT complex in vitro; type: biochemical, human; conditions: for HPLC minimum: Table 6, minimum concentration giving complex: free IgA ratio of 20%, >500 = no dissociation at highest concentration tested; for anti-complex activity (in words): summary statements after Tables 2-6
Protocol: The ability of the peptides of the invention to dissociate purified IgA-α1 AT complex in vitro was tested as described below. The anti-rheumatic drug D-penicillamine and other synthetic peptides were used as controls. […] The sample was monitored at wavelength 206 nm at a flow rate of 1 ml/minute with phosphate buffer (0.1M) pH 7.1. They represent the ability of the peptides to dissociate the IgA-α1 AT complex in vitro. In these experiments, the base-lines level comprises a complex: free IgA ratio of 14%. The minimum concentration of peptide taken to produce a positive dissociation effect is that which results in a complex: free IgA ratio at 20%. In the results tables, all the peptide values are expressed in μMoles.

[1] = test system: alternative complement (C3) pathway; assay: Inhibition of C3-activation (IgA-α1 AT complex activation of alternative complement pathway, rabbit RBC lysis); type: biochemical, human; conditions: for C' minimum: Table 6, minimum concentration needed to prevent C3 activation
Protocol: Various peptides were tested for their ability to prevent the IgA-α1 AT complex from activating the alternative complement (C3) pathway. […] This method was based on the method described by Riches and Stanworth, Immunology Letters, 1980, 1, 363,366, with modification to miniaturise it thus allowing the assay to be carried out on microtitre plates. The initial observation by […] and Ishizaka (J Immunol. […] The non-immune complex IgA-α1 AT had been shown in the past to be the only known soluble complex to activate the alternative pathway complement and inhibit the lysis of the rabbit erythrocytes. This inhibition required biologically active complex. […] Positive and negative controls, serum only controls and serum plus IgA-α1 AT complex controls were included in the assay. 25 μl of a suitable dilution of IgA-α1 AT complex (see (iii) above) was added to the test wells and the plates were centrifuged at 2000 rpm for 1 minute. The plates were then incubated at 37° C. for 11/2 hours. 50 μl of a suitable serum dilution (see (a) above) was added and the plates centrifuged at 2000 rpm for 10 minute, then incubated at 37° C. for 30 minutes. 50 μl of 1% rabbit RBC was added and after a further 30 minutes of 37° C. incubation, the plates were centrifuged at 2000 rpm for 10 minutes. Supernatants were taken as previously. The mean values of each of the serum(s), serum and complex (c+s) and total haemolysis wells were calculated. The % haemolysis with respect to lysis by serum wells was calculated. The peptide was considered to have titred out when % lysis value was equal to the calculated % lysis value given by the c+s mean. The titre point for the peptide was calculated as the concentration in μM of the peptide that just gave greater lysis than the c+s mean value.

Molecule | HPLC minimum (IgA-α1 AT complex) | anti-complex activity (in words) (IgA-α1 AT complex) | C' minimum [1] | HPLC % (IgA-α1 AT complex; Table 1, minimum peptide concentration giving complex: free IgA ratio of 20% (base-line 14%), 90 minutes at 37° C.) | C' ([1]; Table 1, minimum concentration of peptide needed to prevent C3 activation)
N[C@@H](CCC(=O)N[C@@H](CS)C(=O)NCC(=O)O)C(=O)O [Glutathione] | 500 µM | relatively inactive | 31 µM |  | 
N[C@@H](CS)C(=O)O [Cysteine] | 250 µM |  | 16 µM |  | 
CC(=O)N[C@@H](CS)C(=O)O [N-acetyl Cysteine] | 500 µM | relatively inactive | 4 µM |  | 
HGCGGGGnh2 [Peptide 168] |  |  |  | 10 µM | 8 µM
Substance P (RPKPQQFFGLM; ends and bridges not checked; UniProt P20366 58-68, looked up) [control peptide of Group 6] | > 500 µM |  | > 500 µM |  | 
CC(C)(S)[C@@H](N)C(=O)O [D-Penicillamine] | 250 µM |  | 31 µM |  | 
